Measured values published in ChEMBL document CHEMBL5678818, “Discovery of potent SOS1 inhibitors that block RAS activation via disruption of the RAS-SOS1 interaction” (Proc Natl Acad Sci U S A, 2019).

Tests used:
[1] = molecular target: AP2-associated protein kinase 1 (Homo sapiens) (UniProt Q2M2I8); experiment: Inhibition of AAK1 (unknown origin) assessed as residual activity at 1000 nM by KINOMEscan analysis relative to control
[2] = test system: Tyrosine-protein kinase ABL1 (Homo sapiens), P00519 [F317L]; experiment: Inhibition of nonphosphorylated ABL1 F317L mutant (unknown origin) assessed as residual activity at 1000 nM by KINOMEscan analysis relative to control
[3] = molecular target: Aurora kinase B (Homo sapiens) (UniProt Q96GD4); experiment: Inhibition of AURKB (unknown origin) assessed as residual activity at 1000 nM by KINOMEscan analysis relative to control
[4] = molecular target: CDK4/Cyclin D3 (Homo sapiens) (UniProt P11802+P30281); experiment: Inhibition of CDK4-cyclin D3 (unknown origin) assessed as residual activity at 1000 nM by KINOMEscan analysis relative to control; type: protein-complex assay
[5] = molecular target: Casein kinase I isoform delta (Homo sapiens) (UniProt P48730); experiment: Inhibition of CSNK1D (unknown origin) assessed as residual activity at 1000 nM by KINOMEscan analysis relative to control
[6] = molecular target: Casein kinase I isoform gamma-2 (Homo sapiens) (UniProt P78368); experiment: Inhibition of CSNK1G2 (unknown origin) assessed as residual activity at 1000 nM by KINOMEscan analysis relative to control
[7] = molecular target: T1, Discoidin domain-containing receptor 2 (Homo sapiens) (UniProt Q16832); experiment: Inhibition of DDR2 (unknown origin) assessed as residual activity at 1000 nM by KINOMEscan analysis relative to control
T1 sequence (whole entry): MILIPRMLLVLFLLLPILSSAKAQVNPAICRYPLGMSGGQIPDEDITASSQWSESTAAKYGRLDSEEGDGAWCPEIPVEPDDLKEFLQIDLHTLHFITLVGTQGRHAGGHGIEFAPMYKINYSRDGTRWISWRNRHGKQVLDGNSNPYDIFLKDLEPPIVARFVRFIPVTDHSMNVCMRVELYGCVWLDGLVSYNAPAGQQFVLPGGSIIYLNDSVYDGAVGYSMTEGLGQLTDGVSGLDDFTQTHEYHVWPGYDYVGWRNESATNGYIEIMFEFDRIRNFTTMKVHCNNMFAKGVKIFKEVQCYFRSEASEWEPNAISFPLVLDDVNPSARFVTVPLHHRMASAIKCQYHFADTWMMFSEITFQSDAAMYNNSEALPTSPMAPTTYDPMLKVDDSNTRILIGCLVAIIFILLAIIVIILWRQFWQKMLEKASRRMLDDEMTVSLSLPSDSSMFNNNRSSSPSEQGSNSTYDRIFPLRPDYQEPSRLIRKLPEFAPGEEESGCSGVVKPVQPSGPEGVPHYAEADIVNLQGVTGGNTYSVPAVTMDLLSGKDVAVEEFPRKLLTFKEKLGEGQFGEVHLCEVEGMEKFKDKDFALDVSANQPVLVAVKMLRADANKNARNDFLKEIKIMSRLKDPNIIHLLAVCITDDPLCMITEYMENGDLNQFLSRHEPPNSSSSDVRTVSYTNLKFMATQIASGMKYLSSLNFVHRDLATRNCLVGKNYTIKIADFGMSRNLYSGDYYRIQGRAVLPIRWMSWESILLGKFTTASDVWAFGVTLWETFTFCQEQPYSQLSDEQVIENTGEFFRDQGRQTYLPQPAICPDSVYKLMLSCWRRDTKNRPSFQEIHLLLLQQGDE

[8] = molecular target: Ephrin type-A receptor 4 (Homo sapiens) (UniProt P54764); experiment: Inhibition of EPHA4 (unknown origin) assessed as residual activity at 1000 nM by KINOMEscan analysis relative to control
[9] = molecular target: Receptor tyrosine-protein kinase erbB-2 (Homo sapiens) (UniProt P04626); experiment: Inhibition of ERBB2 (unknown origin) assessed as residual activity at 1000 nM by KINOMEscan analysis relative to control
[10] = molecular target: Homeodomain-interacting protein kinase 3 (Homo sapiens) (UniProt Q9H422); experiment: Inhibition of HIPK3 (unknown origin) assessed as residual activity at 1000 nM by KINOMEscan analysis relative to control
[11] = molecular target: Macrophage-stimulating protein receptor (Homo sapiens) (UniProt Q04912); experiment: Inhibition of MST1R (unknown origin) assessed as residual activity at 1000 nM by KINOMEscan analysis relative to control
[12] = molecular target: Serine/threonine-protein kinase NIM1 (Homo sapiens) (UniProt Q8IY84); experiment: Inhibition of NIM1 (unknown origin) assessed as residual activity at 1000 nM by KINOMEscan analysis relative to control
[13] = molecular target: Cyclin-dependent kinase 2 homolog (Plasmodium falciparum (isolate K1 / Thailand)) (UniProt Q07785); experiment: Inhibition of Plasmodium falciparum PK5 assessed as residual activity at 1000 nM by KINOMEscan analysis relative to control
[14] = test system: Phosphatidylinositol 4,5-bisphosphate 3-kinase catalytic subunit alpha isoform (Homo sapiens), P42336 [E545A]; experiment: Inhibition of PIK3CA E545A mutant (unknown origin) assessed as residual activity at 1000 nM by KINOMEscan analysis relative to control
[15] = test system: Phosphatidylinositol 4,5-bisphosphate 3-kinase catalytic subunit alpha isoform (Homo sapiens), P42336 [Q546K]; experiment: Inhibition of PIK3CA Q546K mutant (unknown origin) assessed as residual activity at 1000 nM by KINOMEscan analysis relative to control
[16] = molecular target: Serine/threonine-protein kinase pim-3 (Homo sapiens) (UniProt Q86V86); experiment: Inhibition of PIM3 (unknown origin) assessed as residual activity at 1000 nM by KINOMEscan analysis relative to control
[17] = molecular target: SRSF protein kinase 1 (Homo sapiens) (UniProt Q96SB4); experiment: Inhibition of SRPK1 (unknown origin) assessed as residual activity at 1000 nM by KINOMEscan analysis relative to control
[18] = molecular target: Serine/threonine-protein kinase 32B (Homo sapiens) (UniProt Q9NY57); experiment: Inhibition of YANK2 (unknown origin) assessed as residual activity at 1000 nM by KINOMEscan analysis relative to control
[19] = molecular target: SRSF protein kinase 3 (Homo sapiens) (UniProt Q9UPE1); experiment: Inhibition of SRPK3 (unknown origin) assessed as residual activity at 1000 nM by KINOMEscan analysis relative to control
Sequence of SRSF protein kinase 3 (Homo sapiens) (Q9UPE1 whole entry, looked up): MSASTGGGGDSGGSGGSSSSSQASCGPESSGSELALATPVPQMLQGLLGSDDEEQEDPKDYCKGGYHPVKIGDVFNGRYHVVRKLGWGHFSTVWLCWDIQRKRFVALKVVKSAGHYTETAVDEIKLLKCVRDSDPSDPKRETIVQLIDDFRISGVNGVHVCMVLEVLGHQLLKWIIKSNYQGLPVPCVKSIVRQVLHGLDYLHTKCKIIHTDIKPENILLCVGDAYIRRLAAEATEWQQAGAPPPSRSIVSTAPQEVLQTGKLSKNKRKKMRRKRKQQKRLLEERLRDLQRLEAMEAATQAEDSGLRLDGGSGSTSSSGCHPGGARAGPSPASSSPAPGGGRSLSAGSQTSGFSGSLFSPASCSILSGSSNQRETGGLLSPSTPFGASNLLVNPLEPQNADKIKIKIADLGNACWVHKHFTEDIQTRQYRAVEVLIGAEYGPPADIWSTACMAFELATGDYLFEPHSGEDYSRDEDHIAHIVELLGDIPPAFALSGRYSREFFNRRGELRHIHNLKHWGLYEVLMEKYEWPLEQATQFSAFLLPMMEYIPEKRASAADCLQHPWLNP

Sequence of Aurora kinase B (Homo sapiens) (Q96GD4 whole entry): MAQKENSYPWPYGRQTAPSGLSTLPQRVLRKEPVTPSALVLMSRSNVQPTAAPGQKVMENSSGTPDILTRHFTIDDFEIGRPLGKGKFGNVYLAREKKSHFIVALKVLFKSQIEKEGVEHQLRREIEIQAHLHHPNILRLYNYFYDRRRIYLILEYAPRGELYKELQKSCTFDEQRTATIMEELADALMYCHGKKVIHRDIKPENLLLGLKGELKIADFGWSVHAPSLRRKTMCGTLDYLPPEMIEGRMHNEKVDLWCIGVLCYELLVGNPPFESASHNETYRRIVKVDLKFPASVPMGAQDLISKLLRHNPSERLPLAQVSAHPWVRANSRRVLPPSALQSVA
Sequence of Tyrosine-protein kinase ABL1 (Homo sapiens), P00519 [F317L] (P00519 whole entry F317L): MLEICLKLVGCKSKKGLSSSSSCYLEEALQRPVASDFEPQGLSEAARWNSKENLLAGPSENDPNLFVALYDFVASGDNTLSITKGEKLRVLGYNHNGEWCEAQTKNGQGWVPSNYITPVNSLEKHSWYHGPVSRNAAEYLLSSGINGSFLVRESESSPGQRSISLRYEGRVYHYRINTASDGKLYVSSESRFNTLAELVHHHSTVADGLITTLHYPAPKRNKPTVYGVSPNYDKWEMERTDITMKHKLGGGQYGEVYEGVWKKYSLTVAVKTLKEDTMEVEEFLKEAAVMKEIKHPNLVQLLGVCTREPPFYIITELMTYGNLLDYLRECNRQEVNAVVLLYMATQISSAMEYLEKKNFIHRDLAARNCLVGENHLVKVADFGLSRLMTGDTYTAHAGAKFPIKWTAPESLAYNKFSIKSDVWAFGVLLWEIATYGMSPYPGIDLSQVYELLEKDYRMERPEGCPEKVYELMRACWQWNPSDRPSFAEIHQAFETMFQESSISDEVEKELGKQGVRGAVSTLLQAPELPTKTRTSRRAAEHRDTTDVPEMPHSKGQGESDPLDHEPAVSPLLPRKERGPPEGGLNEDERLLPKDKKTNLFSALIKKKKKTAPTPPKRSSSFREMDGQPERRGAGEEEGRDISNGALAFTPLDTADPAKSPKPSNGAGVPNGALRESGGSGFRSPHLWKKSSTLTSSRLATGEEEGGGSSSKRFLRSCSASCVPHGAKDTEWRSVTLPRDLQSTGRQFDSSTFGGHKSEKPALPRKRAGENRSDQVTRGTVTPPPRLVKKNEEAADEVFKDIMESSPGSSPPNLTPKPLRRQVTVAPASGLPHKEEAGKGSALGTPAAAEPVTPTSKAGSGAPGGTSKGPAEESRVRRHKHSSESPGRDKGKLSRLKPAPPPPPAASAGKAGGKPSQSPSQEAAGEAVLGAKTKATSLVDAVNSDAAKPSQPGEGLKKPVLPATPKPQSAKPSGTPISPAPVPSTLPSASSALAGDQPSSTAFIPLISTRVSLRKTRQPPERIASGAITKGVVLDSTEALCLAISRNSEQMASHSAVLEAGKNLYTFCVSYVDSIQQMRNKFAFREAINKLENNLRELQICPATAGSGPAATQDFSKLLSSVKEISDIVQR
Sequence of Serine/threonine-protein kinase 32B (Homo sapiens) (Q9NY57 whole entry): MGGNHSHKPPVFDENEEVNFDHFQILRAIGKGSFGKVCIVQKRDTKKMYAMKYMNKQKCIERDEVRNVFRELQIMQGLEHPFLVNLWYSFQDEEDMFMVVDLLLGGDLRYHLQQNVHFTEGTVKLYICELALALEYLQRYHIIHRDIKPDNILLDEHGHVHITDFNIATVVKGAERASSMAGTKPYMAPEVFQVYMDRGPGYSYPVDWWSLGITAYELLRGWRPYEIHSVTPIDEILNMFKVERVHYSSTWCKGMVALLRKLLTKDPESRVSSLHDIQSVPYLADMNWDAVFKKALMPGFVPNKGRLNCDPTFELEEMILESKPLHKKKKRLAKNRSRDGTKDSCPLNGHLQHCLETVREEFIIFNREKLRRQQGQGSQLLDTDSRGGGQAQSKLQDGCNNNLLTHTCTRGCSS
Sequence of Ephrin type-A receptor 4 (Homo sapiens) (P54764 whole entry): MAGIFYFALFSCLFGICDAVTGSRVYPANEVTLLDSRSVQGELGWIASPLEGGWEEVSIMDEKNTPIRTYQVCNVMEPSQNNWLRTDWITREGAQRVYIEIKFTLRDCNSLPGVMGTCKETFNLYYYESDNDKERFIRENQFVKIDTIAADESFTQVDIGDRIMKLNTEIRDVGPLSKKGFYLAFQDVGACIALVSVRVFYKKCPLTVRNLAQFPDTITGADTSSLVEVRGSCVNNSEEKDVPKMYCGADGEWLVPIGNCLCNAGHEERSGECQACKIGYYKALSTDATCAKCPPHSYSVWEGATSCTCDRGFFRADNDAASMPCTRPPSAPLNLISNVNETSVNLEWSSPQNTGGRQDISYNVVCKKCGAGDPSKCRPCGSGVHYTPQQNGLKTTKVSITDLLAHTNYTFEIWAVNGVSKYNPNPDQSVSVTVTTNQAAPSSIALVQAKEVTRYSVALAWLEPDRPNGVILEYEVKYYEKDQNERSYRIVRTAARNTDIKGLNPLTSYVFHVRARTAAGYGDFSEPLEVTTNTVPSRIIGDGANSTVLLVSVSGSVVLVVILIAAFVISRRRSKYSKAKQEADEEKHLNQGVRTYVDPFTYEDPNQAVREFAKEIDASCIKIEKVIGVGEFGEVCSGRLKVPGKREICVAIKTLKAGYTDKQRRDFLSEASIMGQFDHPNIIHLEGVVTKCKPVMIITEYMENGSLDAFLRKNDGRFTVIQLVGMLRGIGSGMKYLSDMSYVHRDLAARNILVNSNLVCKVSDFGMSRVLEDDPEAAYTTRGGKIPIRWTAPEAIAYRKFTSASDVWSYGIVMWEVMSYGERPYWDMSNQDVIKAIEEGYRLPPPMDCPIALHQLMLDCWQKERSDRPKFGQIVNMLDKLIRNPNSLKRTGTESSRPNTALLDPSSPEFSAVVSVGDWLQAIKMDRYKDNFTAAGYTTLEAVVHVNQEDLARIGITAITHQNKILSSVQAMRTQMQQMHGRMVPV
Sequence of Phosphatidylinositol 4,5-bisphosphate 3-kinase catalytic subunit alpha isoform (Homo sapiens), P42336 [Q546K] (P42336 whole entry Q546K, canonical isoform): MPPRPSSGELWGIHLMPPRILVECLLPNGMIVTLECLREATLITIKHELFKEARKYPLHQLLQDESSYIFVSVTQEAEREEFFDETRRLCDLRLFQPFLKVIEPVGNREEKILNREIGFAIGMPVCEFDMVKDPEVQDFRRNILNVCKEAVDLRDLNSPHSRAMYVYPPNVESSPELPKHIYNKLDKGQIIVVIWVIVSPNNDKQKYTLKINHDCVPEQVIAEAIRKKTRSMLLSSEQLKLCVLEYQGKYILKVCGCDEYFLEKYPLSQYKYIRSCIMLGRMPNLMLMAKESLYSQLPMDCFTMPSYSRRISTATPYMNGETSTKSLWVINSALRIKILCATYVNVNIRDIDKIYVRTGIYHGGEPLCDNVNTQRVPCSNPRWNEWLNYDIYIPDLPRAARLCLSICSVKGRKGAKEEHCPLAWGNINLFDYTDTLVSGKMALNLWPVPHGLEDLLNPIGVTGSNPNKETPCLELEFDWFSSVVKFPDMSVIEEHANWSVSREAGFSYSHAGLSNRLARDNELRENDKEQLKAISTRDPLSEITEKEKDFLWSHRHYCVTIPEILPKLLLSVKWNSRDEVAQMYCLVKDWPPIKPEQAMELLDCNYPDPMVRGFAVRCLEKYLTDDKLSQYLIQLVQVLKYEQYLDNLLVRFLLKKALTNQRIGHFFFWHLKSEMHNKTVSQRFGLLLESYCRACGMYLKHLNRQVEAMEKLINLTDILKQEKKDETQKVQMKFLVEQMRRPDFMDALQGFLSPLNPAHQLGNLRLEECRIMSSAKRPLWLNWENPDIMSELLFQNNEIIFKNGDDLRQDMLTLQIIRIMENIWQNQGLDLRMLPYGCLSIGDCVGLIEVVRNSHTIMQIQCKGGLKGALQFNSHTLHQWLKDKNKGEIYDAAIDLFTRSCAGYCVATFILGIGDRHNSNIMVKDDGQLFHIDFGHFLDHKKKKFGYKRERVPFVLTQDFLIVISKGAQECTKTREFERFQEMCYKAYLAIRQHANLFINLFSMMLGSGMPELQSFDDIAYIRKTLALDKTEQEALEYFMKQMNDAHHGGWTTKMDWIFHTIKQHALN
Sequence of Phosphatidylinositol 4,5-bisphosphate 3-kinase catalytic subunit alpha isoform (Homo sapiens), P42336 [E545A] (P42336 whole entry E545A, canonical isoform): as the sequence (P42336 whole entry Q546K, canonical isoform) above, with E545A, K546Q counted along it

SMILES | Activity [1] [%] | Activity [2] [%] | Activity [3] [%] | Activity [4] [%] | Activity [5] [%] | Activity [6] [%] | Activity [7] [%] | Activity [8] [%] | Activity [9] [%] | Activity [10] [%] | Activity [11] [%] | Activity [12] [%] | Activity [13] [%] | Activity [14] [%] | Activity [15] [%] | Activity [16] [%] | Activity [17] [%] | Activity [18] [%] | Activity [19] [%]
COc1cc2nc(C)nc(N[C@H](C)c3cccc(-c4cn[nH]c4)c3)c2cc1OC | 100 | 99 | 79 | 100 | 100 | 100 | 97 | 96 | 76 | 69 | 75 | 88 | 98 | 66 | 87 | 90 | 77 | 86 | 93
COc1cc2ncnc(N[C@H](C)c3cccc4ccccc34)c2cc1OC | 100 | 99 | 98 | 100 | 95 | 100 | 67 | 95 | 26 | 88 | 100 | 78 | 100 | 91 | 83 | 100 | 98 | 92 | 100
